Measured values taken from US5041567A, “Antibacterial monic acid derivatives” (Beecham Group plc, priority 1982, dated 1991).
≈ marks a conversion by molar mass, not a printed value. Like-named read-outs stand apart in the source and are kept apart here.

How the values were obtained:
M. suipneumoniae Str. 11 = assay: MIC against mycoplasma in vitro; type: cell-based; conditions: Mesomycoplasma hyopneumoniae
[1] = system: M. suipneumoniae J2206/183^b; assay: MIC against mycoplasma in vitro; type: cell-based; conditions: Mesomycoplasma hyopneumoniae, 144 h
[2] = system: M. suipneumoniae PW/C/210; assay: MIC against mycoplasma in vitro; type: cell-based; conditions: Mesomycoplasma hyopneumoniae, 144 h
M. suipneumoniae LABER = assay: MIC against mycoplasma in vitro; type: cell-based; conditions: Mesomycoplasma hyopneumoniae, 144 h
M. hyorhinis ATCC 25021 = assay: MIC against mycoplasma in vitro; type: cell-based; conditions: Mesomycoplasma hyorhinis, ATCC25021, 144 h
[3] = system: M. hyosynoviae ATCC 25591; assay: MIC against mycoplasma in vitro; type: cell-based; conditions: 144 h
M. bovis NCTC 10131 = assay: microbe, parasite or virus in culture; type: cell-based; conditions: NCTC10131, 144 h
M. dispar NCTC 10125 = assay: MIC against mycoplasma in vitro; type: cell-based; conditions: 144 h
E. coli NCTC 10418 = assay: MIC against human bacteria in vitro; type: cell-based; conditions: Escherichia coli
P. mirabilis 889 = assay: MIC against human bacteria in vitro; type: cell-based
K. aerogenes A = assay: MIC against human bacteria in vitro; type: cell-based; conditions: Klebsiella aerogenes
[4] = system: Haemophilus influenzae Q1; assay: MIC against human bacteria in vitro; type: cell-based
[5] = system: Neisseria catarrhalis 1502; assay: MIC against human bacteria in vitro; type: cell-based
Bacillus subtilis 6633 = assay: MIC against human bacteria in vitro; type: cell-based
[6] = system: Corynebacterium xerosis 9755; assay: MIC against human bacteria in vitro; type: cell-based
Staph. aureus Oxford = assay: MIC against human bacteria in vitro; type: cell-based; conditions: Staphylococcus aureus; Staph. aureus Oxford; 5% chocolated horse blood agar, 18 hours; read-out: MIC
Strep. faecalis I = assay: MIC against human bacteria in vitro; type: cell-based; conditions: Enterococcus faecalis
[7] = system: Strep. pyogenes R80/421-A; assay: MIC against human bacteria in vitro; type: cell-based; conditions: Streptococcus pyogenes; Strep. pyogenes R80/421-A; 5% chocolated horse blood agar, 18 hours; read-out: MIC
Past. multocida PA1 = assay: MIC against veterinary bacteria in vitro; conditions: Pasteurella multocida, PA1, 18 h
Method: (§1) The activity of the compounds of the Examples against various veterinarily important bacteria, was assayed in vitro using two-fold serial dilutions in Diagnostic Sensitivity Test Agar inoculated with 10^4 organisms.

Past. haemolytica PA5 = assay: MIC against veterinary bacteria in vitro; conditions: Mannheimia haemolytica, PA5, 18 h
Method: as §1

[8] = system: Corynebacterium pyogenes CY1; assay: MIC against veterinary bacteria in vitro; conditions: CY1, 18 h
Method: as §1

[9] = system: Staph. aureus B4 (pen. resistant); assay: MIC against veterinary bacteria in vitro; conditions: Staphylococcus aureus, 18 h
Method: as §1

Strep. uberis SPU1 = assay: MIC against veterinary bacteria in vitro; conditions: Streptococcus uberis, SPU1, 18 h
Method: as §1

Strep. dysgalactiae SPD1 = assay: MIC against veterinary bacteria in vitro; conditions: Streptococcus dysgalactiae, SPD1, 18 h
Method: as §1

[10] = 144 h, M. suipneumoniae Str. 11, 6 days, 37° C., read-out: MIC
[11] = M. suipneumoniae J2206/183^b, 6 days, 37° C., read-out: MIC
[12] = M. suipneumoniae PW/C/210, 6 days, 37° C., read-out: MIC
[13] = M. suipneumoniae LABER, 6 days, 37° C., read-out: MIC
[14] = M. hyorhinis ATCC 25021, 6 days, 37° C., read-out: MIC
[15] = M. hyosynoviae ATCC 25591, 6 days, 37° C., read-out: MIC
[16] = M. dispar NCTC 10125, 6 days, 37° C., read-out: MIC
[17] = NCTC10418, E. coli NCTC 10418, agar with 5% chocolated horse blood, 18 hours, 37° C., read-out: MIC
[18] = Proteus mirabilis, P. mirabilis 889, 5% chocolated horse blood agar, 18 hours, read-out: MIC
[19] = K. aerogenes A, 5% chocolated horse blood agar, 18 hours, read-out: MIC
[20] = Haemophilus influenzae Q1, 5% chocolated horse blood agar, 18 hours, read-out: MIC
[21] = Neisseria catarrhalis 1502, 5% chocolated horse blood agar, 18 hours, read-out: MIC
[22] = Bacillus subtilis 6633, 5% chocolated horse blood agar, 18 hours, read-out: MIC
[23] = Corynebacterium xerosis 9755, 5% chocolated horse blood agar, 18 hours, read-out: MIC
[24] = Strep. faecalis I, 5% chocolated horse blood agar, 18 hours, read-out: MIC

| SMILES | MIC (M. suipneumoniae Str. 11; [10]) [µg/mL] | MIC [1, 11] [µg/mL] | MIC [2, 12] [µg/mL] | MIC (M. suipneumoniae LABER; [13]) [µg/mL] | MIC (M. hyorhinis ATCC 25021; [14]) [µg/mL] | MIC [3, 15] [µg/mL] | MIC (M. bovis NCTC 10131) [µg/mL] | MIC (M. dispar NCTC 10125; [16]) [µg/mL] | MIC (K. aerogenes A; [19]) [µg/mL] | MIC [4, 20] [µg/mL] | MIC [5, 21] [µg/mL] | MIC (Bacillus subtilis 6633; [22]) [µg/mL] | MIC [6, 23] [µg/mL] | MIC [7] [µg/mL] | MIC (Past. multocida PA1) [µg/mL] | MIC (Past. haemolytica PA5) [µg/mL] | MIC [8] [µg/mL] | MIC [9] [µg/mL] | MIC (Strep. uberis SPU1) [µg/mL] | MIC (Strep. dysgalactiae SPD1) [µg/mL] | also measured |
| --- | --- | --- | --- | --- | --- | --- | --- | --- | --- | --- | --- | --- | --- | --- | --- | --- | --- | --- | --- | --- | --- |
| COC(=O)c1ccc(-c2cnc(/C=C(\C)C[C@@H]3OC[C@H](C[C@@H]4O[C@H]4[C@@H](C)[C@H](C)O)[C@@H](O)[C@H]3O)o2)cc1 [Example 16, 5-p-Methoxycarbonylphenyl-2-(1-normon-2-yl) oxazole A] | 0.25 (≈ 0.498 µM) | 0.5 (≈ 0.997 µM) | 0.25 (≈ 0.498 µM) | 0.25 (≈ 0.498 µM) | 0.25 (≈ 0.498 µM) | 0.5 (≈ 0.997 µM) | 0.05 (≈ 0.0997 µM) | 0.1 (≈ 0.199 µM) | > 64 | 2 (≈ 3.99 µM) | 8 (≈ 15.9 µM) | 1 (≈ 1.99 µM) | > 64 | 4 (≈ 7.97 µM) | 40 (≈ 79.7 µM) | > 80 | > 80 | 5 (≈ 9.97 µM) | 0.312 (≈ 0.622 µM) | 1.25 (≈ 2.49 µM) | MIC (E. coli NCTC 10418; [17]): > 64 µg/mL; MIC (P. mirabilis 889; [18]): > 64 µg/mL; MIC (Staph. aureus Oxford): 4 µg/mL (≈ 7.97 µM); MIC (Strep. faecalis I; [24]): > 64 µg/mL |
| C/C(=C\c1nc(-c2ccccc2)c(-c2ccccc2)o1)C[C@@H]1OC[C@H](C[C@@H]2O[C@H]2[C@@H](C)[C@H](C)O)[C@@H](O)[C@H]1O [Example 41, 4,5-Diphenyl-2-(1-normon-2-yl)oxazole A] | > 10 | > 10 | > 10 | > 10 | > 10 | > 10 | 2.5 (≈ 4.81 µM) | > 10 | > 100 | 10 (≈ 19.2 µM) | 25 (≈ 48.1 µM) | 100 (≈ 192 µM) | > 100 | > 100 | 40 (≈ 77 µM) | > 80 | 40 (≈ 77 µM) | 40 (≈ 77 µM) | 10 (≈ 19.2 µM) | 20 (≈ 38.5 µM) | MIC (E. coli NCTC 10418; NCTC10418, 18 h): > 100 µg/mL; MIC (P. mirabilis 889; Proteus mirabilis, 889, 18 h): > 100 µg/mL; MIC (Staph. aureus Oxford): 100 µg/mL (≈ 192 µM); MIC (Strep. faecalis I; [24]): > 100 µg/mL |
| COc1ccc(-c2cnc(/C=C(\C)C[C@@H]3OC[C@H](C[C@@H]4O[C@H]4[C@@H](C)[C@H](C)O)[C@@H](O)[C@H]3O)o2)cc1 [Example 4, 5-p-methoxyphenyl-2-(1-normon-2-yl)oxazole A] | – | – | – | – | – | – | 0.025 (≈ 0.0528 µM) | – | > 100 | 2.5 (≈ 5.28 µM) | 10 (≈ 21.1 µM) | 5 (≈ 10.6 µM) | > 100 | 5 (≈ 10.6 µM) | 5 (≈ 10.6 µM) | 40 (≈ 84.5 µM) | > 80 | 5 (≈ 10.6 µM) | 0.312 (≈ 0.659 µM) | 1.25 (≈ 2.64 µM) | MIC (M. suipneumoniae Str. 11; STR.11, 144 h): 0.5 µg/mL (≈ 1.06 µM); MIC [1]: 1 µg/mL (≈ 2.11 µM); MIC [2]: 0.5 µg/mL (≈ 1.06 µM); MIC (M. suipneumoniae LABER): 0.5 µg/mL (≈ 1.06 µM); MIC (M. hyorhinis ATCC 25021): 0.5 µg/mL (≈ 1.06 µM); MIC [3]: 0.5 µg/mL (≈ 1.06 µM); MIC (M. dispar NCTC 10125): 0.25 µg/mL (≈ 0.528 µM); MIC (E. coli NCTC 10418; [17]): > 100 µg/mL; MIC (P. mirabilis 889; [18]): > 100 µg/mL; MIC (Staph. aureus Oxford): 2.5 µg/mL (≈ 5.28 µM); MIC (Strep. faecalis I; [24]): > 100 µg/mL |
| COC(=O)CCCCCCCc1cnc(/C=C(\C)C[C@@H]2OC[C@H](C[C@@H]3O[C@H]3[C@@H](C)[C@H](C)O)[C@@H](O)[C@H]2O)o1 [Example 7, 5-(7-Methoxycarbonylheptyl)-2-(1-normon-2-yl)oxazole A] | 10 (≈ 19.1 µM) | > 10 | 10 (≈ 19.1 µM) | 10 (≈ 19.1 µM) | 10 (≈ 19.1 µM) | 5 (≈ 9.55 µM) | 0.1 (≈ 0.191 µM) | 2.5 (≈ 4.77 µM) | – | – | – | – | – | 25 (≈ 47.7 µM) | 40 (≈ 76.4 µM) | > 80 | > 80 | 5 (≈ 9.55 µM) | 1.25 (≈ 2.39 µM) | 2.5 (≈ 4.77 µM) | MIC (E. coli NCTC 10418; NCTC10418, 18 h): > 100 µg/mL; MIC (P. mirabilis 889; Proteus mirabilis, 889, 18 h): > 100 µg/mL; MIC (K. aerogenes A; 18 h): > 100 µg/mL; MIC ([4]; Haemophilus influenzae, Q1, 18 h): 0.5 µg/mL (≈ 0.955 µM); MIC ([5]; Neisseria, 1502, 18 h): 5 µg/mL (≈ 9.55 µM); MIC (Bacillus subtilis 6633; Bacillus subtilis, 6633, 18 h): 2.5 µg/mL (≈ 4.77 µM); MIC ([6]; Corynebacterium xerosis, 9755, 18 h): > 100 µg/mL; MIC (Strep. faecalis I; 18 h): > 100 µg/mL |
